From PubChem BioAssay AID2202558 (NIEHS Division of Translational Toxicology (DTT))
Records with an inconclusive call do not appear. Activity calls are given as the source filed them. No rule for the calls is given here. Where a SMILES comes first, the peptide text is derived from it.

What follows are compounds tested on mouse/rat in vivo micronucleus assay, summary call (assay: In vivo micronucleus assay summary data).
Text: The erythrocyte micronucleus test examines the ability of substances to cause chromosome damage in developing red blood cells inside bone marrow. A micronucleus (literally, "little nucleus") is a biomarker of structural chromosome damage (e.g., breaks) and changes in chromosome number (e.g., chromosome loss). If a chromosome is broken or fails to migrate properly with other chromosomes during cell division, the broken piece or lost chromosome will form a small (micro) nucleus of its own in one of the two daughter cells produced. Detection of chromosomal damage is important because it has been linked to birth defects, infertility, and certain diseases, including cancer.
The micronucleus test is performed in rapidly dividing cell populations, and bone marrow is a site of rapid blood cell division. Both bone marrow and peripheral blood samples can be examined for the presence of micronuclei in red blood cells.
Animals are treated with a test substance once or daily over a period of time, and the frequency of micronucleated cells is determined 24-48 hours after the final treatment, depending on the source of the cells (bone marrow or blood) that are examined and the treatment regimen.
The test subjects are rodents (rats or mice) that are exposed to the test substance, usually by oral gavage or injection. Typically, one to three daily treatments of the test substance are administered over a range of doses; the highest dose tested is near the maximum tolerated dose. Groups of negative and positive control animals are included for each test. Bone marrow samples are obtained from all animals 24 hours after the last treatment, and red blood cells are examined for the presence of micronuclei.
B. Peripheral Blood Tests
Micronucleus tests are performed on male and female rodents that are exposed to the test substance orally, dermally, or by inhalation in subchronic (e.g., 28 or 90 days) or short term (e.g., 48-72 hours) toxicity studies. 24 to 48 hours after the final exposure, peripheral blood samples are obtained and red blood cells are examined for the presence of micronuclei. Samples may be examined using standard slide scoring procedures or automated flow cytometric approaches. Since 2007, NTP has routinely relied on flow cytometry to evaluate the frequency of micronucleated cells in peripheral blood.
Peripheral blood micronucleus assays are typically integrated into all NTP toxicity studies, and they also lend themselves to serial monitoring of micronucleus frequencies over time, since blood samples can be obtained without the need to sacrifice the animals.
Blood or bone marrow samples from treated animals are compared to samples from untreated animals. With the slide-based approach for data acquisition, 1000-2000 cells were scored per animal. Using flow cytometric procedures to evaluate blood samples, 20,000 immature red blood cells and around one million mature red blood cells are examined per animal, resulting in a marked increase in the ability to detect small changes in the frequency of micronucleated red blood cells. The data is analyzed using statistical methods to determine if there is a significant increase in the frequency of cells containing micronuclei. Both dose-related responses and the magnitude of response for each independent dose group are considered during the evaluation of the data. For a positive test, both a significant dose response (trend) and at least one significant dose group are required. If only one of these measures is present, the test is determined to be questionable. The absence of either condition results in a negative test. The final conclusions for micronucleus tests are determined by considering the results of statistical analyses, reproducibility of any observed effects, and the magnitude of the effects. Ultimately, both the biological significance as well as statistical significance is considered when reaching a final conclusion.
[…]

Compound | outcome
Cc1cccc([N+](=O)[O-])c1 | inactive; negative
CC(=O)C(C)O (configuration not stated) | inactive; negative
Nc1ccc(Cl)cc1 | active; positive
CC[C@]1(O)C[C@H]2CN(CCc3c([nH]c4ccccc34)[C@@](C(=O)OC)(c3cc4c(cc3OC)N(C=O)[C@H]3[C@@](O)(C(=O)OC)[C@H](OC(C)=O)[C@]5(CC)C=CCN6CC[C@]43[C@@H]65)C2)C1 | active; positive
C=CC(=O)NCNC(=O)C=C | active; positive
O=C(O)C(Cl)Cl | active; positive
Nc1nc(=O)n([C@@H]2CS[C@H](CO)O2)cc1F | active; positive
CC/C(=C(/CC)c1ccc(O)cc1)c1ccc(O)cc1 | active; positive
Nc1ccccc1Cl | active; negative
Oc1ccccc1 | active; positive
CN(N=O)C(N)=O | active; positive
CCOC(N)=O | active; positive
CN(C)CCC(c1ccc(Cl)cc1)c1ccccn1 (configuration not stated) | inactive; negative
CC1C(=O)C[C@]2(C(C)C)C[C@H]12 (some centres not stated) | active; positive
Cc1cc(O)c2c(c1)C(=O)c1cc(O)cc(O)c1C2=O | active; positive
Nc1ccc(Oc2ccc(N)cc2)cc1 | active; positive
O=CC=CC=Cc1ccc([N+](=O)[O-])cc1 | active; positive (nonstandard protocol)
CC[C@H](CC[C@@H](C)[C@H]1CC[C@H]2[C@@H]3CC=C4C[C@@H](O)CC[C@]4(C)[C@H]3CC[C@]12C)C(C)C | inactive; negative
CN(C)C(=O)Nc1ccc(Cl)cc1 | active; positive
C(=NC1CCCCC1)=NC1CCCCC1 | active; weakly positive
CC(C)=CCl | active; positive
CC1=CC(=O)NS(=O)(=O)O1 | active; positive
CN(C)c1ccc(C(c2ccccc2)c2ccc(N(C)C)cc2)cc1 | active; positive
OCc1c[nH]c2ccccc12 | inactive; negative
C=CCOCC1CO1 (configuration not stated) | active; positive
Nc1cccc(Cl)c1 | inactive; negative

Compound | outcome
Nc1ccc(-c2ccccc2)cc1 | active; positive
C=CC(=O)CC | inactive; negative
C1CN1c1nc(N2CC2)nc(N2CC2)n1 | active; positive
O=S1(=O)CCCC1 | inactive; negative
CBr | active; positive
Nc1ncn([C@@H]2O[C@H](CO)[C@@H](O)[C@H]2O)c(=O)n1 | active; positive
[O]=[Cr](=[O])([OH])[O][Cr](=[O])(=[O])[OH] | active; positive
Cc1ccccc1N | active; negative
Cc1cn([C@H]2C[C@H](N=[N+]=[N-])[C@@H](CO)O2)c(=O)[nH]c1=O | active; positive
O=[N+]([O-])C(Br)=Cc1ccccc1 | active; positive
CC(C)(C)O | inactive; negative
O=C(O)CS | active; positive
O=C1c2cccc(O)c2C(=O)c2c(O)cccc21 | inactive; negative
ClC(Cl)Cl | active; positive
CCCCOCCO | inactive; negative
Clc1ccc(N=Nc2ccc(Cl)c(Cl)c2)cc1Cl | active; positive
C=CC(N)=O | active; positive
FC(F)(F)c1ccc(Cl)cc1 | active; positive
OC(O)C(Cl)(Cl)Cl | active; positive
Cc1cccc(Nc2cc(Cl)nc(SCC(=O)O)n2)c1C | inactive; negative
ClCCOCOCCCl | inactive; negative
CC(=O)C1(C)CC2=C(CCCC2(C)C)CC1C (configuration not stated) | active; positive
Nc1ccc(S(=O)(=O)Nc2ccccn2)cc1 | active; positive
BrCCBr | active; positive
C=CC(=C)C | active; positive
CO[C@@]12[C@H](COC(N)=O)C3=C(C(=O)C(C)=C(N)C3=O)N1C[C@@H]1N[C@@H]12 | active; positive

Compound | outcome
CCOC(C)(C)C | inactive; negative
CS(=O)(=O)OC[C@H](O)[C@@H](O)COS(C)(=O)=O | active; positive
S=c1[nH]c2ccccc2s1 | inactive; negative
N[C@@H](Cc1ccc(N(CCCl)CCCl)cc1)C(=O)O | active; positive
CC(C)(C)c1ccc(O)c(O)c1 | inactive; negative
COC(=O)C(c1ccccc1)C1CCCCN1 (configuration not stated) | inactive; negative
O=C1O[C@H]([C@@H](O)CO)C(O)=C1O | active; positive
[O]=[Sb][O][Sb]=[O] | active; positive
CCCC[N+]1(C)CCCC1 | active; negative
Cc1cn([C@H]2C=C[C@@H](CO)O2)c(=O)[nH]c1=O | active; positive
COC(=O)c1ccccc1C(=O)OC | inactive; negative
C=C(C)C#N | inactive; negative
Brc1c(Br)c(Br)c(Oc2c(Br)c(Br)c(Br)c(Br)c2Br)c(Br)c1Br | active
Cc1c2ccccc2c(C)c2c1ccc1ccccc12 | active; positive
[O-][Br+2]([O-])O | active; positive
Oc1cccc(O)c1 | active; positive
Cc1ccc([N+](=O)[O-])cc1 | inactive; negative
Cc1ccc(S(N)(=O)=O)cc1 | inactive; negative
O=S(=O)(O)C(F)(F)C(F)(F)C(F)(F)C(F)(F)C(F)(F)C(F)(F)C(F)(F)C(F)(F)F | active
Nc1ccn([C@H]2CC[C@@H](CO)O2)c(=O)n1 | active; positive
COc1ccc2nc(N)sc2c1 | active; positive
[O-][N+](=Nc1ccc(Cl)c(Cl)c1)c1ccc(Cl)c(Cl)c1 | active; positive
C=CC(=O)OCC(CO)(COC(=O)C=C)COC(=O)C=C | active; positive
NC(=O)c1ncn([C@@H]2O[C@H](CO)[C@@H](O)[C@H]2O)n1 | active; positive
CCn1cc[n+](C)c1 | inactive; negative
Nc1nc(=S)c2[nH]cnc2[nH]1 | active; positive

Compound | outcome
c1ccccc1 | active; positive
COC(=O)[C@H](Cc1ccccc1)NC(=O)[C@@H](N)CC(=O)O (H-Asp-Phe-OMe) | active; positive
CCCCn1cc[n+](C)c1 | inactive; negative
c12c3c4c5c1c1c6c7c2c2c8c3c3c9c4c4c%10c5c5c1c1c6c6c%11c7c2c2c7c8c3c3c8c9c4c4c9c%10c5c5c1c1c6c6c%11c2c2c7c3c3c8c4c4c9c5c1c1c6c2c3c41 | inactive; negative
ClC=CCCl | active; positive
COc1cccc2c1C(=O)c1c(O)c3c(c(O)c1C2=O)C[C@@](O)(C(=O)CO)C[C@@H]3O[C@H]1C[C@H](N)[C@H](O)[C@H](C)O1 | active; positive
O=C(O)c1cc(N=Nc2ccc(S(=O)(=O)Nc3ccccn3)cc2)ccc1O | active; positive
O=C1C=CCCC1 | inactive; negative
ClC(Cl)C(Cl)Cl | active; positive
O=C(O)C(Br)Br | active; positive
O[C@@H]([C@H](O)[C@H](O)CBr)[C@H](O)CBr | active; positive
CC(C)C=O | inactive; negative
NC(=O)NO | active; positive
O=C(O)CCCc1ccc(N(CCCl)CCCl)cc1 | active; positive
COc1cc(Cc2cnc(N)nc2N)cc(OC)c1OC (tested in a mixture with another compound) | active; positive
ClCC(Cl)(Cl)Cl | active; positive
Cn1c(=O)c2[nH]cnc2n(C)c1=O | active; positive
O=C1OC(c2ccc(O)cc2)(c2ccc(O)cc2)c2ccccc21 | active; positive
CCOS(C)(=O)=O | active; positive
CC(C)c1ccccc1 | active; negative
CC(CCl)OP(=O)(OC(C)CCl)OC(C)CCl (configuration not stated) | active; positive
Oc1ccc(O)cc1 | active; positive
CCCC=NO | active; positive
C[C@H](Cn1cnc2c(N)ncnc21)OCP(=O)(O)O | active; positive
